Experimental data taken from patent publication US20060069132A1, “Azolecarboxamide herbicides” (priority 2004, published 2006).
Where two headings read alike, the source gives them in different places.

Key:
barnyardgrass = experiment: Test A pre-/postemergence herbicide test; type: in vivo, Echinochloa crus-galli; details: Echinochloa crus-galli, 240 h; for pest or weed control at 500 g/ha: 500 g ai/ha; for pest or weed control at 2000 g/ha: 2000 g ai/ha
Method in brief: (§1)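 Seeds sown in sandy loam received a preemergence directed soil spray of compound in non-phytotoxic solvent with surfactant; postemergence plants (2–10 cm, one- to two-leaf stage) were sprayed to runoff at the same time. After ~10 days in greenhouse, injury was rated visually versus untreated controls (0 = no effect, 100 = complete control).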

redroot pigweed = experiment: Test A pre-/postemergence herbicide test; type: in vivo, Amaranthus retroflexus; details: Amaranthus retroflexus, 240 h; for pest or weed control at 500 g/ha: 500 g ai/ha; for pest or weed control at 2000 g/ha: 2000 g ai/ha
Method in brief: as §1

rice = experiment: Test B pre-/postemergence herbicide test; type: in vivo, Oryza sativa; details: preemergence
Method in brief: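 Plants compared with untreated controls 13–15 days post-treatment and given a visual 0–100 injury score. Applications: preemergence to seeds; postemergence at 1- to 4-leaf (2–18 cm); paddy species flooded, 2-leaf stage. Vehicle non-phytotoxic, surfactant included.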

cocklebur = experiment: Test C pre-/postemergence herbicide test; type: in vivo, Xanthium strumarium; details: for Plant response rating, Cocklebur: preemergence
Method in brief: (§2)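 Seeds were planted and sprayed preemergence with test chemicals in a non-phytotoxic solvent mixture containing surfactant; postemergence treatments went onto plants 2 to 18 cm tall (1- to 4-leaf stage). After 12 to 14 days in a greenhouse, injury was rated visually against untreated controls on a 0–100 scale.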

corn = experiment: Test C pre-/postemergence herbicide test; type: in vivo, Zea mays; details: for Plant response rating, Corn: preemergence
Method in brief: as §2

johnsongrass = experiment: Test C pre-/postemergence herbicide test; type: in vivo, Sorghum halepense; details: for Plant response rating, Johnsongrass: preemergence
Method in brief: as §2

pigweed = experiment: Test C pre-/postemergence herbicide test; type: in vivo, Amaranthus retroflexus; details: for Plant response rating, Pigweed: preemergence
Method in brief: as §2

velvetleaf = experiment: Test C pre-/postemergence herbicide test; type: in vivo, Abutilon theophrasti; details: for Plant response rating, Velvetleaf: preemergence
Method in brief: as §2

[1] = post-emergence, Postemergence, 0 to 100 scale, 0 no effect, 100 complete control, read-out: Plant response rating, Barnyardgrass
[2] = post-emergence, Postemergence, 0 to 100 scale, 0 no effect, 100 complete control, read-out: Plant response rating, Pigweed
[3] = Postemergence, 500 g ai/ha, scale 0 to 100
[4] = 125 g ai/ha, scale 0 (no effect) to 100 (complete control), visual, 12 to 14 days
[5] = 500 g ai/ha, scale 0 to 100 (0 no effect, 100 complete control), visual, 12 to 14 days

## CCn1nc(C(C)(C)C)cc1C(=O)Nc1cccc(C(=O)OCCF)c1 [Compound 82, 2-fluoroethyl 3-[[[3-(1,1-dimethylethyl)-1-ethyl-1H-pyrazol-5-yl]-carbonyl]amino]benzoate]
barnyardgrass; [1]
  pest or weed control at 500 g/ha: 20%
  pest or weed control at 2000 g/ha: 20%
barnyardgrass; pre-emergence, Preemergence, visual rating, 0 to 100 scale (0 no effect, 100 complete control), read-out: Barnyardgrass plant response rating
  pest or weed control at 500 g/ha: 0%
barnyardgrass; pre-emergence, Preemergence, 0 to 100 scale, 0 no effect, 100 complete control, read-out: Barnyardgrass plant response rating
  pest or weed control at 2000 g/ha: 0%
Redroot pigweed; [2]
  pest or weed control at 500 g/ha: 50%
  pest or weed control at 2000 g/ha: 50%
Redroot pigweed; pre-emergence, Preemergence, visual rating, 0 to 100 scale (0 no effect, 100 complete control), read-out: Pigweed plant response rating
  pest or weed control at 500 g/ha: 5%
Redroot pigweed; pre-emergence, Preemergence, 0 to 100 scale, 0 no effect, 100 complete control, read-out: Pigweed plant response rating
  pest or weed control at 2000 g/ha: 35%
rice; Oryza sativa, pre-emergence, 336 h, 125 g ai/ha, 0 to 100 scale, 0 is no effect, 100 is complete control, read-out: Plant response rating, Rice
  plant injury at 125 g/ha: 0%
cocklebur; Xanthium strumarium, post-emergence, 312 h, Postemergence, 500 g ai/ha, scale 0 to 100, read-out: Cocklebur plant response rating
  pest or weed control at 500 g/ha: 20%
cocklebur; Xanthium strumarium, post-emergence, 312 h, Postemergence, 250 g ai/ha, scale 0 to 100, 0 no effect, 100 complete control, read-out: Plant response rating, Cocklebur
  pest or weed control at 250 g/ha: 5%
cocklebur; Xanthium strumarium, post-emergence, 312 h, postemergence, 125 g ai/ha, scale 0 to 100, read-out: Plant response rating, Cocklebur
  pest or weed control at 125 g/ha: 5%
cocklebur; Xanthium strumarium, post-emergence, 312 h, postemergence, 62 g ai/ha, scale 0 to 100, read-out: Plant response rating, Cocklebur
  pest or weed control at 62 g/ha: 5%
corn; [3]
  Corn plant response rating: 45
corn; Zea mays, post-emergence, 312 h, Postemergence, 250 g ai/ha, scale 0 to 100, 0 no effect, 100 complete control
  Corn plant response rating (crop injury, 0 = no effect, 100 = complete kill) at 250 g/ha: 10%
corn; Zea mays, post-emergence, 312 h, postemergence, 125 g ai/ha, scale 0 to 100
  Corn plant response rating (crop injury, 0 = no effect, 100 = complete kill) at 125 g/ha: 10%
corn; Zea mays, post-emergence, 312 h, postemergence, 62 g ai/ha, scale 0 to 100
  Corn plant response rating (crop injury, 0 = no effect, 100 = complete kill) at 62 g/ha: 10%
johnsongrass; [3]
  Johnsongrass plant response rating: 10
johnsongrass; Sorghum halepense, post-emergence, Postemergence, 250 g ai/ha, scale 0 to 100, 0 no effect, 100 complete control, read-out: Plant response rating, Johnsongrass
  pest or weed control at 250 g/ha: 5%
johnsongrass; Sorghum halepense, post-emergence, postemergence, 125 g ai/ha, scale 0 to 100, read-out: Plant response rating, Johnsongrass
  pest or weed control at 125 g/ha: 0%
johnsongrass; Sorghum halepense, post-emergence, postemergence, 62 g ai/ha, scale 0 to 100, read-out: Plant response rating, Johnsongrass
  pest or weed control at 62 g/ha: 0%
pigweed; Amaranthus retroflexus, post-emergence, Postemergence, 250 g ai/ha, scale 0 to 100, 0 no effect, 100 complete control, read-out: Plant response rating, Pigweed
  pest or weed control at 250 g/ha: 100%
pigweed; Amaranthus retroflexus, post-emergence, postemergence, 125 g ai/ha, scale 0 to 100, read-out: Plant response rating, Pigweed
  pest or weed control at 125 g/ha: 100%
pigweed; Amaranthus retroflexus, post-emergence, postemergence, 62 g ai/ha, scale 0 to 100, read-out: Plant response rating, Pigweed
  pest or weed control at 62 g/ha: 85%
pigweed; [3]
  Pigweed plant response rating: 100
velvetleaf; Abutilon theophrasti, post-emergence, Postemergence, 250 g ai/ha, scale 0 to 100, 0 no effect, 100 complete control, read-out: Plant response rating, Velvetleaf
  pest or weed control at 250 g/ha: 70%
velvetleaf; Abutilon theophrasti, post-emergence, postemergence, 125 g ai/ha, scale 0 to 100, read-out: Plant response rating, Velvetleaf
  pest or weed control at 125 g/ha: 10%
velvetleaf; Abutilon theophrasti, post-emergence, postemergence, 62 g ai/ha, scale 0 to 100, read-out: Plant response rating, Velvetleaf
  pest or weed control at 62 g/ha: 5%
velvetleaf; [3]
  Velvetleaf plant response rating: 75

## CCn1nc(C(C)(C)C)cc1C(=O)Nc1cc(C(=O)N(C)OC)ccc1F [Compound 244]
rice; 125 g ai/ha, 0 = no effect, 100 = complete control
  Rice plant response rating (0 to 100 scale): 60
rice; 500 g ai/ha, visual rating, 0 = no effect, 100 = complete control
  Plant response rating, Rice: 80
cocklebur; 62 g ai/ha, scale 0 to 100
  Plant response rating, Cocklebur: 0
cocklebur; [4]
  Plant response rating, Cocklebur: 0
cocklebur; 250 g ai/ha, scale 0-100
  Plant response rating, Cocklebur: 0
cocklebur; Preemergence, 500 g ai/ha, scale 0 to 100, 0 no effect, 100 complete control
  Cocklebur plant response rating: 0
corn; 62 g ai/ha, scale 0 to 100
  Plant response rating, Corn: 0
corn; [4]
  Plant response rating, Corn: 10
corn; 250 g ai/ha, scale 0-100
  Plant response rating, Corn: 10
corn; [5]
  Plant response rating, Corn: 45
johnsongrass; 62 g ai/ha, scale 0 to 100
  Plant response rating, Johnsongrass: 60
johnsongrass; [4]
  Plant response rating, Johnsongrass: 95
johnsongrass; 250 g ai/ha, scale 0-100
  Plant response rating, Johnsongrass: 95
johnsongrass; [5]
  Plant response rating, Johnsongrass: 100
pigweed; 62 g ai/ha, scale 0 to 100
  Plant response rating, Pigweed: 100
pigweed; [4]
  Plant response rating, Pigweed: 100
pigweed; 250 g ai/ha, scale 0-100
  Plant response rating, Pigweed: 100
pigweed; [5]
  Plant response rating, Pigweed: 100
velvetleaf; 62 g ai/ha, scale 0 to 100
  Plant response rating, Velvetleaf: 15
velvetleaf; 250 g ai/ha, scale 0-100
  Plant response rating, Velvetleaf: 100
velvetleaf; [5]
  Plant response rating, Velvetleaf: 100
